These results are taken from article PMC4414309, “Target Modulation by a Kinase Inhibitor Engineered to Induce a Tandem Blockade of the Epidermal Growth Factor Receptor (EGFR) and c-Src: The Concept of Type III Combi-Targeting” (PLoS ONE, 2015).

Data set [1] relates to 4T1 cells. Put plainly: Boyden chamber invasion assay, 4T1. The settings on record: 4T1, concentration as low as 0.1 μM, 24h. Format: cell-based, mouse. As for the experimental part:
The invasive property of MDA-MB-231 and 4T1 cells was determined using the Boyden-chamber invasion assay. Cells suspended in serum-free media were plated (120–150,000 cells/well) onto polycarbonate transwell inserts (8 μm pore size, BD Biosciences) coated with matrigel (6%) (BD Biosciences), separating the top and bottom chambers (50 μl/filter). […] The invasive property of cells was observed 24h after treatment by fixing cells in formalin and staining with 0.1% crystal violet (Sigma-Aldrich Canada Ltd). Cells attached on the upper surface of the insert (top chamber) were removed by gently scraping away with a cotton swab, whereas those that invaded onto the lower side of the insert were observed using a microscope (Leica DM IL inverted microscope, 10X). Images of five non-overlapping fields of invading cells were captured using the Leica DFC300FX camera and quantification was done using the Scion Image Analysis (3.53.0.0) software and ImageJ 1.46r software. The results were expressed in terms of percentage of invading cells relative to control and the bar graphs represent the average of three independent experiments.

Data set [2] is described as follows: LC-MS analysis of AL776 hydrolysis in plasma in vivo. On the set-up: species or system CD-1 mice. As for the experimental part:
CD-1 mice were divided into groups of three and treated with 80 mg/kg of AL776, injected intraperitoneally (i.p) or intravenously (i.v). Mice were sacrificed and their plasma was collected for further analysis after 0, 5, 15 and 30 min after drug treatment. Plasma samples were extracted using twice the volume of methanol and lysed at 13,000 rpm for 30 min at 4°C. The resulting supernatant from each sample was collected, filtered and evaporated to dryness before reconstituting in 100 μL of methanol. LC-MS analyses were performed on a Synapt G2-S instrument coupled with an Acquity UPLC Class I system both from Waters. Elution rate was set at 500 μL/min using an Eclipse XDB C8, 3.5 um, 2.1 x 100 mm chromatographic column from Agilent Technologies. The experiments were performed with the following eluents: 0.1% aqueous formic acid (eluent A) and methanol (eluent B). The initial mobile phase was 30% B, which was maintained for 0.2 min at the beginning of the run. The following gradient elution was subsequently applied: 30 to 50% B from 0.2 to 4 min; 50 to 80% B from 4 to 10 min; held at 80% B from 10 to 11 min. Thereafter, eluent B was decreased to 30% in 0.2 min and held constant for up to 15 min to allow the column to equilibrate. Each sample was diluted with methanol in order to avoid detector saturation and […] aliquots of the resulting solutions were injected. Analyses were performed with the electrospray interface in positive ion mode and mass spectra acquired from m/z 100 to 1200. For accurate mass determination, Leucine Enkephalin was used as lock mass. The MassLynx software was used for instrument control, data acquisition and data processing.

For data set [3], the system named is NIH3T3 wild type and EGFR transfected cells. Put plainly: Apoptosis by annexin V/PI flow cytometry. The class given is cell-based, mouse. The note with it: 48h. As for the experimental part:
NIH3T3 cell lines (wild type and EGFR transfected) were plated in 6-well plates (500,000 cells/well) and allowed to grow overnight (37°C, 5% CO2). […] They were subsequently collected using trypsin (Wisent Inc., St-Bruno, Canada), centrifuged (2000 rpm, 5 min), rinsed with PBS and centrifuged again to obtain a cell pellet. The pellet was re-suspended in binding buffer (1X) and prior to being analyzed, annexin V-FITC and PI stains (eBioscience, San Diego, CA, USA) were added to the cells and incubated for 15 min in the dark at 4°C. Annexin V–FITC and PI binding were analyzed with a Becton Dickinson FACScan. Data were collected using logarithmic amplification of both the FL1 (FITC) and FL2 (PI) channels. Quadrant analysis of coordinate dot plots was done with CellQuestPro software. The experiment was carried out three times.
On the technique in general: Flow cytometry measures light scatter and fluorescence of single cells or particles in a stream.

Data set [4] has as its system NIH3T3-Her14 (EGFR transfected) cells. Put plainly: Absorption and hydrolysis kinetics of AL776 in cells (HPLC). The class given is in vitro ADME, mouse. As for the experimental part:
NIH3T3-Her14 cells were seeded in 6-well plates (1 x 10^6 cells/well) and grown in DMEM with 10% FBS for 24 h. Cells were then treated with 25 μM of AL776 and incubated at 37°C for 1h, 2h, 6h, 24h or 48h. The media was collected and extracted using twice the volume of methanol, on ice and centrifuged for 20 min at 13,000 rpm at 4°C. The resulting supernatant was filtered, evaporated to dryness and reconstituted with 100 μL of methanol. Cells were collected using trypsin and the cell pellet obtained was rinsed once with PBS and lysed with methanol (500 μL /tube) on ice for 1h. The lysate was centrifuged at 13,000 rpm for 20 min at 4°C and the resulting supernatant was collected into a separate tube and the remaining pellet was subjected to lysis two more times (250 μL /tube). The supernatant from each lysis step were pooled all together, filtered, evaporated to dryness and resuspended in 100 μL of methanol before further analyzing the samples. HPLC analysis was performed using a ACE 5 C18 5 μm column (150 mmx4.6 mm) under elution conditions of gradient 70–75% methanol:water for the first 5 min and isocratic methanol elution until 30 min, using a 0.75 mL/min flow rate. Analyses were performed using a Thermoquest P4000 equipped with a UV2000 detector and an AS300 Autosampler.

Data set [5] deals with EGFR phosphorylation in 4T1 tumours. Put plainly: Pharmacodynamics in 4T1 tumours, EGFR phosphorylation. The settings on record: i.v., AL776 40 mg/kg, gefitinib + dasatinib 20 mg/kg each.
Method: (§1) Mice were implanted with 4T1 mammary tumour cells, 15 million cells/flank (suspended in 200 μL PBS), subcutaneously.
(§2) Mice were sacrificed 1h or 24h after treatment and their tumours were collected and snap frozen at -80°C for further analysis using western blots. Tumours were crushed using a mortar/pestle chilled using liquid nitrogen and lysed with RIPA buffer diluted to a 1X concentration and supplemented with 1mM PMSF (Cell Signaling Technology, USA). Western blot analysis was carried out with the tumour samples, similar to the method described earlier.
The subject of data set [6] is MDA-MB-231 cells. Put plainly: Growth inhibition, SRB assay, MDA-MB-231. The settings on record: Homo sapiens, MDA-MB-231, 120 h, read-out: IC50 growth inhibition MDA-MB-231. For orientation: Sulforhodamine B stains cellular protein and so reports cell mass.
Method: Growth inhibition was measured in cells using the sulforhodamine B (SRB) assay [48]. […] The plates were subsequently rinsed with 1% acetic acid, and allowed to dry overnight. […] The results were analyzed using GraphPad Prism 6.0 (GraphPadSoftware, Inc., San Diego, CA) and the sigmoidal dose response curve was used to determine IC50 values. Each experiment was carried out at least four times, in triplicate.
Data set [7] concerns MDA-MB-231 cells. Put plainly: Wound-healing assay, MDA-MB-231. Format: cell-based, human. The settings on record: MDA-MB-231, 0.1 μM, 24h drug exposure. How it is done: MDA-MB-231 and 4T1 cells were plated in 6-well plates (500,000 cells/well) and allowed to attach overnight (37°C, 5% CO2). The following day, media was removed and a cross scratch was made in the middle of the cell monolayer. […] The scratch was visualized at two different time points (0 and 24h) using the Leica DM IL inverted microscope (10X) and images were obtained using the Leica DFC300FX camera.

In data set [8] the test system is ERK1/2 phosphorylation in 4T1 tumours. Put plainly: Pharmacodynamics in 4T1 tumours, ERK1/2 phosphorylation. The settings on record: i.v., AL776 40 mg/kg, gefitinib + dasatinib 20 mg/kg each.
Method: as §1, §2

Turning to `Cc1nc(Nc2ncc(C(=O)Nc3c(C)cccc3Cl)s2)cc(N2CCN(CCOC(=O)CCC(=O)OCCN(C)Cc3ccc(C(=O)Nc4ccc5ncnc(Nc6cccc(Cl)c6)c5c4)cc3)CC2)n1` [AL776], in data set [1], the Effect on invasion result was “strongly inhibited invasion”. Besides, the “Intact AL776 in plasma” value is “no intact AL776 found in plasma” in data set [2] (80 mg/kg i.p., early time points) and “barely detectable levels” in data set [2] (80 mg/kg i.v., 30 min post-administration). Also, in data set [3] (1μM dose), the “Level of apoptosis (early + late)” value is “higher level of apoptosis than gefitinib or dasatinib”. Moreover, the “Lowest concentration inducing apoptosis” value in data set [3] is 1 µM. The “Detection of AL776 in cells and extracellular medium” value in data set [4] (25 μM, 24–48h) was “detectable inside the cells but not in the extracellular medium”. In addition, in data set [4] (24h), the “Intact AL776 found in the cells” value was 50%. For the same compound, the “Inhibition of EGFR phosphorylation in tumours” value was “strong blockade” in data set [5] (1h post-administration) and “reversed” in data set [5] (24 h post-treatment). In addition, the IC50 in data set [6] amounted to 0.05 ± 0.004 µM. Moreover, the Effect on wound-closure result in data set [7] is listed as “blocked wound-closure”. For the same compound, the “Inhibition of ERK1/2 phosphorylation in tumours” value in data set [8] (1h post-administration) is listed as “strongly inhibited”; in data set [8] (24 h post-treatment), “reversed”.

By IC50 is commonly meant the midpoint of a concentration-inhibition curve.
